This note sets out measurements from BindingDB's records for doi:10.1021/cb300729y (University of Dundee, 2013).

The target in one assay is T1, Aurora kinase A (Homo sapiens, UniProt O14965).
T1 sequence (O14965 whole entry): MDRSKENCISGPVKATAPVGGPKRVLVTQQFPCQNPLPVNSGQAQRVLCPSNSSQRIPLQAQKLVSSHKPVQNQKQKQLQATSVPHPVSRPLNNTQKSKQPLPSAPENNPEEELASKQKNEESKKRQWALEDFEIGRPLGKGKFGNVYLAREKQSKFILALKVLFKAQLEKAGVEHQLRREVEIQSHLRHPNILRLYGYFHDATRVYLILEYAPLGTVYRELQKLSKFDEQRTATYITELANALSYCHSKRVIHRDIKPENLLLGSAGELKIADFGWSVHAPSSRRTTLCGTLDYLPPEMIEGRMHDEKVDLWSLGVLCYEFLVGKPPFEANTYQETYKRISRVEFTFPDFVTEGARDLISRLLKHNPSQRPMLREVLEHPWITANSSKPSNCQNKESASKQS
Nature of the assay: Kinase Assay. The protocol: (§1) Selected compounds were screened against a panel of mammalian kinases. Compounds were supplied in DMSO and screened in duplicates at 100 uM concentration using a radioactive (33P-ATP) filter-binding-assay.

Assay [1] has as its target Casein kinase II subunit alpha (Homo sapiens, UniProt P68400). In words: Kinase Assay. The protocol: as §1
The target in assay [2] is Cyclin-dependent kinase 2 (Homo sapiens, UniProt P24941). In words: Kinase Assay. The protocol:
as §1

The target in assay [3] is Dual specificity protein kinase CLK2 (Homo sapiens, UniProt P49760). Nature of the assay: Kinase Assay. The protocol: as §1
In assay [4] the target is Fibroblast growth factor receptor 1 (Homo sapiens, UniProt P11362). Nature of the assay: Kinase Assay. Here is the method: as §1
The target in assay [5] is Insulin-like growth factor 1 receptor (Homo sapiens, UniProt P08069). Nature of the assay: Kinase Assay. Here is the method:
as §1

In assay [6] the target is T2, Mitogen-activated protein kinase kinase kinase 7 (Homo sapiens, UniProt O43318).
T2 sequence (O43318 whole entry): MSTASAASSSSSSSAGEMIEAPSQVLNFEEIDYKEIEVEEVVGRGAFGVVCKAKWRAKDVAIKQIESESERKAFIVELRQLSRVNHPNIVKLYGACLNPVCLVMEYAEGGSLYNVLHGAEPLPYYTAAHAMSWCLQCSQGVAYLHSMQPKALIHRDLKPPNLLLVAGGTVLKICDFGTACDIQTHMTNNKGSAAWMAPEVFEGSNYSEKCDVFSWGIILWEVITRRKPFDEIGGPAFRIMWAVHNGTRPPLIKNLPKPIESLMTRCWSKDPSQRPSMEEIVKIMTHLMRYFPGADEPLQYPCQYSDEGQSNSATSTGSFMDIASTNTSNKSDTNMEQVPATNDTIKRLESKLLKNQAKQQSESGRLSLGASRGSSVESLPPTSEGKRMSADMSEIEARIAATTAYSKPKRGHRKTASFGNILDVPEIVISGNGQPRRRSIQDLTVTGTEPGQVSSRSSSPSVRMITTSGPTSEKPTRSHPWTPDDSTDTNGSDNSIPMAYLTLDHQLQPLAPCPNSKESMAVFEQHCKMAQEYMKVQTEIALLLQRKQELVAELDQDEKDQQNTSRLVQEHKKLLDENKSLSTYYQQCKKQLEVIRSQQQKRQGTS
Nature of the assay: Kinase Assay. Here is the method: as §1

The target in assay [7] is Germinal center kinase MAP4K2 (Homo sapiens). Nature of the assay: Selected compounds were screened against a panel of mammalian kinases. Compounds were supplied in DMSO and screened in duplicates at 100 uM concentration using a radioactive (33P-ATP) filter-binding-assay.
The target in assay [8] is Serine/threonine-protein kinase pim-1 (Homo sapiens, UniProt P11309). In words: Kinase Assay. Here is the method: as §1
Assay [9] concerns the target Serine/threonine-protein kinase pim-3 (Homo sapiens, UniProt Q86V86). Nature of the assay: Kinase Assay. The protocol:
as §1

In the next assay the target is T3, Ephrin type-B receptor 3 (Homo sapiens, UniProt P54753).
T3 sequence (P54753 whole entry): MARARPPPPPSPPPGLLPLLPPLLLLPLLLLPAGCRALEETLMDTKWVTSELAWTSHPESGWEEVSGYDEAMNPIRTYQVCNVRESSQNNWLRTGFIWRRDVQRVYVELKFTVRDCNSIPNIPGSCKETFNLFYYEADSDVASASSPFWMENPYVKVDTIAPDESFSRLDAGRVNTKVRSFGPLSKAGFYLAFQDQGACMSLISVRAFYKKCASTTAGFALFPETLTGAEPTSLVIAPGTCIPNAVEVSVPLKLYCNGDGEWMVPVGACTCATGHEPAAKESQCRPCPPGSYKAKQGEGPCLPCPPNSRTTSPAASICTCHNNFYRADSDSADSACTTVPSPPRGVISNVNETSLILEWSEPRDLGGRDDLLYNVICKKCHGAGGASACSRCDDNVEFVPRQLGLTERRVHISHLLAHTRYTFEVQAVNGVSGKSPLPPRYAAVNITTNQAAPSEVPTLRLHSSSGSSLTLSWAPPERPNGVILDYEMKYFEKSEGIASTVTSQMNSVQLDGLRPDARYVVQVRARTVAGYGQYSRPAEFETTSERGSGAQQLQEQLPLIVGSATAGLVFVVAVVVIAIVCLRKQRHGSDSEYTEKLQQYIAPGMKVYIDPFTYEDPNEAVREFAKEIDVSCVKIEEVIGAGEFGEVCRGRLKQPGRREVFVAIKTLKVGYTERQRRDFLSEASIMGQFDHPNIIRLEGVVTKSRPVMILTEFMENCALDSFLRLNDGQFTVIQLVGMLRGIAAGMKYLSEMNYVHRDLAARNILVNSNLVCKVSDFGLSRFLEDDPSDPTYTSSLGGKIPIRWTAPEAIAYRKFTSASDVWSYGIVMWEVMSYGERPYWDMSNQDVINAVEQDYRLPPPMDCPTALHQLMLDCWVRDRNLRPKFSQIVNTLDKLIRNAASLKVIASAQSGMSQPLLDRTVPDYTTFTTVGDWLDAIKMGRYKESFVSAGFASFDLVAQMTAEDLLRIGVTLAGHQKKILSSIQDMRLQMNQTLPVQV
Nature of the assay: Kinase Assay. The protocol: as §1

For assay [10], the target named is MAP kinase-activated protein kinase 3 (Homo sapiens, UniProt Q16644). In words: Kinase Assay. The protocol:
as §1

Assay [11] concerns the target Proto-oncogene tyrosine-protein kinase Src (Gallus gallus, UniProt P00523). Nature of the assay: Kinase Assay. The protocol: as §1
Assay [12] addresses Ribosomal protein S6 kinase alpha-3 (Homo sapiens, UniProt P51812). In words: Kinase Assay. The protocol: as §1
The target of the next assay is SRSF protein kinase 1 (Homo sapiens, UniProt Q96SB4). In words: Kinase Assay. The protocol:
as §1

Assay [13] deals with Glycogen synthase kinase-3 beta (Homo sapiens, UniProt P49841). Nature of the assay: Kinase Assay. The protocol: as §1
The target of assay [14] is T4, Serine/threonine-protein kinase Sgk1 (Homo sapiens, UniProt O00141).
T4 sequence (O00141 whole entry): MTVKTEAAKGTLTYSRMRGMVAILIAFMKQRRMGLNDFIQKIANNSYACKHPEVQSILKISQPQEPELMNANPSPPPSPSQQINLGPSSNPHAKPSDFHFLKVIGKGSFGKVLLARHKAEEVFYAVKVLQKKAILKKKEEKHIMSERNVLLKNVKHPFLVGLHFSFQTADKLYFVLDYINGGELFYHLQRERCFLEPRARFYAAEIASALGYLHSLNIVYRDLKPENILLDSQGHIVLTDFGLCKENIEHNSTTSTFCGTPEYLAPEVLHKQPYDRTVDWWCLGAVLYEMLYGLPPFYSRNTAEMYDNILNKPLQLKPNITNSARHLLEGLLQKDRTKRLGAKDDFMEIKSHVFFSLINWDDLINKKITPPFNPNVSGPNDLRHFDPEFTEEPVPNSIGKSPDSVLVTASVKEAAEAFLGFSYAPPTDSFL
In words: Kinase Assay. Here is the method: as §1

Assay [15] concerns the target Serine/threonine-protein kinase Chk2 (Homo sapiens, UniProt O96017). In words: Kinase Assay. The protocol:
as §1

The target of assay [16] is Tyrosine-protein kinase Yes (Homo sapiens, UniProt P07947). In words: Kinase Assay. The protocol:
as §1

The target in assay [17] is Vascular endothelial growth factor receptor 2 (Homo sapiens, UniProt P35968). Nature of the assay: Kinase Assay. The protocol: as §1

One may read the IC50 as the point on the concentration scale where inhibition reaches its midpoint.

Sequence of Insulin-like growth factor 1 receptor (P08069 31-736 limits assumed): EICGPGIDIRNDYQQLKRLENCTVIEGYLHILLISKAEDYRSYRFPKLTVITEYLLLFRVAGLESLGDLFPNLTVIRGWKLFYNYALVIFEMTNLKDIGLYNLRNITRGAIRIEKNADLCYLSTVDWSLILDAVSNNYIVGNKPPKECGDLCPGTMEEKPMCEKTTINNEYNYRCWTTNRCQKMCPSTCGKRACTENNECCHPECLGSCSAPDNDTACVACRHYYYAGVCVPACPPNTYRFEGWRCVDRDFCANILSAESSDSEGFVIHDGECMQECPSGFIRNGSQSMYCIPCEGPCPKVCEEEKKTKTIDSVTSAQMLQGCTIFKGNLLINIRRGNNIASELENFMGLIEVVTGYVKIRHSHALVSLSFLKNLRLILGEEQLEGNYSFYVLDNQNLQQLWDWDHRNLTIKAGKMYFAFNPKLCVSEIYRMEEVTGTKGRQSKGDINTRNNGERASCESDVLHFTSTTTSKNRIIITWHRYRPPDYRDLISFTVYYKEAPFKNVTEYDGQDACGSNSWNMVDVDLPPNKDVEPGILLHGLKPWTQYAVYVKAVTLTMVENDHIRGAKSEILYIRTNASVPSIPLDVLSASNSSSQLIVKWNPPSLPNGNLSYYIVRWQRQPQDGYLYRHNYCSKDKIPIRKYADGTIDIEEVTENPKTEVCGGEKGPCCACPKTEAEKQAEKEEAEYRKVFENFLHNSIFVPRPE
Sequence of Insulin-like growth factor 1 receptor (P08069 741-1367 limits assumed): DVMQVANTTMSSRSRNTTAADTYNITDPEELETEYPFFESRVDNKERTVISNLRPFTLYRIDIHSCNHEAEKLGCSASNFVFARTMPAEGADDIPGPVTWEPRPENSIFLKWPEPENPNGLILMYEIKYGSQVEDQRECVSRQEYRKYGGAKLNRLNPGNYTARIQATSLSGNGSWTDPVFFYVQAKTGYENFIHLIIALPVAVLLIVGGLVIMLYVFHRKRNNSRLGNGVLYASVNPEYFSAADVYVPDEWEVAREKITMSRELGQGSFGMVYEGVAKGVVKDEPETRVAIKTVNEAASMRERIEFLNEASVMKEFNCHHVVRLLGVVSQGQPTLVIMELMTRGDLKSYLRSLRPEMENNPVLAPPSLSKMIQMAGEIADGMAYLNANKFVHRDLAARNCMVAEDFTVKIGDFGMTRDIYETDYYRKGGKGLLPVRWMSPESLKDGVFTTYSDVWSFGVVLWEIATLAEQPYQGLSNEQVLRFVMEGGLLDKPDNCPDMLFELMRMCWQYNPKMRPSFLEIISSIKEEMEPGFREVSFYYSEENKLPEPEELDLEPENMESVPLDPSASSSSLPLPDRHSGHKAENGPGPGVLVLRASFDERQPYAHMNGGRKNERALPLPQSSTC
Sequence of Fibroblast growth factor receptor 1 (P11362 whole entry): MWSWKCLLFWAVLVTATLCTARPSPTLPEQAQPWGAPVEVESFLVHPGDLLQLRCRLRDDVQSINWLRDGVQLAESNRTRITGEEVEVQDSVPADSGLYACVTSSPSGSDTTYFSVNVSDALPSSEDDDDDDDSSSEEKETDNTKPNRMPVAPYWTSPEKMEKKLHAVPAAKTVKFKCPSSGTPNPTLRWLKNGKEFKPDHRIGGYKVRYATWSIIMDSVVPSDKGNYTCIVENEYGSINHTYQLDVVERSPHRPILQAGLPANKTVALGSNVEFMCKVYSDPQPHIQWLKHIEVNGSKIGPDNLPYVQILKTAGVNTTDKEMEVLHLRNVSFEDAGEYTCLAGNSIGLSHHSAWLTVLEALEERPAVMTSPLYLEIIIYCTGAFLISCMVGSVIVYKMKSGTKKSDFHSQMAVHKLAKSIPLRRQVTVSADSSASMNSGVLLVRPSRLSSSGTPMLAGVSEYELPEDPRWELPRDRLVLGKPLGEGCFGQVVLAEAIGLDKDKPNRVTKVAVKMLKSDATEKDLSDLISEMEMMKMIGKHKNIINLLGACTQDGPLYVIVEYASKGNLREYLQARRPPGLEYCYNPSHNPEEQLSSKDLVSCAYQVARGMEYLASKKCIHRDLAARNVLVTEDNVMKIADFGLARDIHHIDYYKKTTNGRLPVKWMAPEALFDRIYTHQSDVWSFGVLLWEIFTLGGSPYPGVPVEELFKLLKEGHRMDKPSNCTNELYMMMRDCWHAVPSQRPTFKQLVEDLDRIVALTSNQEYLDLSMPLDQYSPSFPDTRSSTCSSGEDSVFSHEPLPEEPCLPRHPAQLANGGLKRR
Sequence of Casein kinase II subunit alpha (P68400 whole entry): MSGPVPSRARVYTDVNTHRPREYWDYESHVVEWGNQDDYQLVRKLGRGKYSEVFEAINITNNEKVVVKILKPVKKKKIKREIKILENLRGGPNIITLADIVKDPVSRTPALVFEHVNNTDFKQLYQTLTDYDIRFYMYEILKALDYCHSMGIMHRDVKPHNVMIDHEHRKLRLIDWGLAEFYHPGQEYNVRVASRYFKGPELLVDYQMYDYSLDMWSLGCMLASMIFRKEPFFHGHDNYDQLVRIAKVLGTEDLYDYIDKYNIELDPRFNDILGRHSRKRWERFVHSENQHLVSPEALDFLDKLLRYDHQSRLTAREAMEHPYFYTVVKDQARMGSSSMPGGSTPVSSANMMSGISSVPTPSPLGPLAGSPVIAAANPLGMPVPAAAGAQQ
Sequence of Ribosomal protein S6 kinase alpha-3 (P51812 whole entry): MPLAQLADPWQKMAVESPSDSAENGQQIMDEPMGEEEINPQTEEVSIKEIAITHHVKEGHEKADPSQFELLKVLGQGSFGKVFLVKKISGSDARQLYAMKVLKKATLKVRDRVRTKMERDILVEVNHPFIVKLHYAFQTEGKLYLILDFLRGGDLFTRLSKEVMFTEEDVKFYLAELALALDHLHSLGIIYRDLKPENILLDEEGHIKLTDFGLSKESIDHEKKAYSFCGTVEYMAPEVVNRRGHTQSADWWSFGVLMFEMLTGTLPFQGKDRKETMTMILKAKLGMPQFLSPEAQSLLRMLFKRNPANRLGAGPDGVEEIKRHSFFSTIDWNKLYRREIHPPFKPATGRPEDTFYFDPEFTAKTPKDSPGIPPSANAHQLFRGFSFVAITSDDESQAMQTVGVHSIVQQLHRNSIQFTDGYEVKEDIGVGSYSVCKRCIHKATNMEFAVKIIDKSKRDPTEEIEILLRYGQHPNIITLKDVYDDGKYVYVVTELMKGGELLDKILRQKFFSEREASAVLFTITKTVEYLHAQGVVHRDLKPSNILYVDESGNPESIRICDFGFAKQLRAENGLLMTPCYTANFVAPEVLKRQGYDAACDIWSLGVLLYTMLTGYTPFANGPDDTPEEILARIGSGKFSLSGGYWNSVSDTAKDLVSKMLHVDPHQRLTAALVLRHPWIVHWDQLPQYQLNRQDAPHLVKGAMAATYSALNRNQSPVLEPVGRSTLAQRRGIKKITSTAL
Sequence of Serine/threonine-protein kinase Chk2 (O96017 whole entry): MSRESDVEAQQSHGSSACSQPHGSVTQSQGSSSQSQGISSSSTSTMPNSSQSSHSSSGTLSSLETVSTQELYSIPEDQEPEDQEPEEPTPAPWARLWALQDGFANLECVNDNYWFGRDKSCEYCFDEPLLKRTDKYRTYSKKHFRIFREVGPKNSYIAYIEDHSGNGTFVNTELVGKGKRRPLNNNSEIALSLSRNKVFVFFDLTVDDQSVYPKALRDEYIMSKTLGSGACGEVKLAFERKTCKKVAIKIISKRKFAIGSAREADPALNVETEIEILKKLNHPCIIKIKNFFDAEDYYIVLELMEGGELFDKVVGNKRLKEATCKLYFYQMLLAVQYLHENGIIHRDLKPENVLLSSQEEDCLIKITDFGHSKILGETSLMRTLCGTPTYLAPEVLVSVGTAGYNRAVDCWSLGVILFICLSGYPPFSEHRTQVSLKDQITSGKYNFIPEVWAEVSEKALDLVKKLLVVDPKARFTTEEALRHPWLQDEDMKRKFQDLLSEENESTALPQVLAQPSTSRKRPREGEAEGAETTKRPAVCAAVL
Sequence of SRSF protein kinase 1 (Q96SB4 whole entry): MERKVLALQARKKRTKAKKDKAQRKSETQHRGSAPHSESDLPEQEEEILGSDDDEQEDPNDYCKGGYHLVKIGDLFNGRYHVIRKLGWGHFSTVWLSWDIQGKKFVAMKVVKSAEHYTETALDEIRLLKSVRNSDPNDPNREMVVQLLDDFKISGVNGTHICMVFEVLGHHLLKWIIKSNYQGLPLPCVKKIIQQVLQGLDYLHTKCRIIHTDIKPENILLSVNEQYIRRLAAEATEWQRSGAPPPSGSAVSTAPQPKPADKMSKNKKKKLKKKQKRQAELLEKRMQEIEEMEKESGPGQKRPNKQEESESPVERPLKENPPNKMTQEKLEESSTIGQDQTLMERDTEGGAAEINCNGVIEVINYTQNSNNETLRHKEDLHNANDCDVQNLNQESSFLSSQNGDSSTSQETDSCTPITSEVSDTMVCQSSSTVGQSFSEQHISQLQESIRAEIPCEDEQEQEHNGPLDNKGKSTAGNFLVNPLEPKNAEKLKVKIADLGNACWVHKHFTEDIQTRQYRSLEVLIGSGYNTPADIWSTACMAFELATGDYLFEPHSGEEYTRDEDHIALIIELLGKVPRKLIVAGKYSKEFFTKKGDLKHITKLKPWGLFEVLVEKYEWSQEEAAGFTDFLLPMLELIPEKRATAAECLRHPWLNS
Sequence of Serine/threonine-protein kinase pim-1 (P11309 whole entry): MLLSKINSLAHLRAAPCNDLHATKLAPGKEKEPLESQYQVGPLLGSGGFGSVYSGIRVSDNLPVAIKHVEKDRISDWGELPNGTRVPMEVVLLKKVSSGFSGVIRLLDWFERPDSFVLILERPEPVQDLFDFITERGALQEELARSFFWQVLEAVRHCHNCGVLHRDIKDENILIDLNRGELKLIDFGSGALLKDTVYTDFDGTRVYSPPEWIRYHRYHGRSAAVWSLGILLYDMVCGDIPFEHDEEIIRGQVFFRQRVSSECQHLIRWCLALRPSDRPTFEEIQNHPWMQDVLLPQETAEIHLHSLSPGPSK

Regarding `Nc1cnc2c(-c3c(F)cccc3F)cccn2c1=O` [Kinase inhibitor, A2], the half-maximal inhibitory concentration (IC50) against Aurora kinase A worked out at 188 µM; in assay [1] it was 131 µM; in assay [2], 26 µM; in [3], 25 µM; in assay [4], 252 µM; in assay [5] it was 47 µM. The IC50 in assay [6] came out at 24 µM; in assay [7], 4 µM.

As to `O=c1cc(-c2ccccc2F)nc2[nH]ccn12` [Kinase inhibitor, F3], the IC50 was determined as 22 µM in assay [8] and 14 µM in assay [9].

As to `CC(C)(C)Nc1c(C2CC2)[nH]c2ncnn12` [Kinase inhibitor, D1], the IC50 on Ephrin type-B receptor 3 is 158 µM; in [4], 469 µM.

Consider `CC1CN(c2nc3ccccn3c(=O)c2N)CC(C)O1` (stereo unspecified) [Kinase inhibitor, A1], for which the IC50 stood at 18 µM in assay [1]; 21 µM in [10]; 97 µM in assay [11]; 196 µM in assay [12]; 114 µM against SRSF protein kinase 1.

In the case of `COc1ccc(-c2cc3c(=O)[nH]cnc3s2)cc1OC` [Kinase inhibitor, C2], the IC50 was 25 µM in assay [13] and 110 µM in assay [14].

Take `Nc1nc2cnc(-c3ccccc3)cn2n1` [Kinase inhibitor, B1]: the IC50 in [5] stood at 25 µM; in [6] it was 11 µM; in assay [11] it was 20 µM; in [15], 17 µM; in assay [16] it was 21 µM; in [17], 39 µM. Also, in [7], the IC50 is 6 µM.
